“And” between values parts separate entries of the source, which are not always exact repeats. Identical values can stand only once. Inconclusive results are not listed.
Tested on: BDF1 mice, M5076 sarcoma s.c., survival/tumor T/C
Test: NCI In Vivo Anticancer Drug Screen. Data for tumor model Sarcoma M5076 (subcutaneous) in B6D2F1 (BDF1) mice
Description: The antitumor activity of compounds was measured in mice bearing transplantable tumors. Survival or tumor size were measured and the results are expressed as the measurement made in the treated group (T) divided by the measurement made in the vehicle treated control group (C). The tumor model used in this assay is Sarcoma M5076 (subcutaneous) in B6D2F1 (BDF1) mice

[1] = endpoint: median survival time, dose: 50.0 mg/kg/injection, schedule: Q01DX009 (ip), vehicle: saline with Tween-80, higher = longer survival
[2] = endpoint: median survival time, dose: 100.0 mg/kg/injection, schedule: Q01DX009 (ip), vehicle: saline with Tween-80, higher = longer survival
[3] = endpoint: median survival time, dose: 200.0 mg/kg/injection, schedule: Q01DX009 (ip), vehicle: saline with Tween-80, higher = longer survival
[4] = endpoint: median tumor weight (est.), dose: 50.0 mg/kg/injection, schedule: Q01DX009 (ip), vehicle: saline with Tween-80, higher = larger tumour
[5] = endpoint: median tumor weight (est.), dose: 100.0 mg/kg/injection, schedule: Q01DX009 (ip), vehicle: saline with Tween-80, higher = larger tumour
[6] = endpoint: median tumor weight (est.), dose: 200.0 mg/kg/injection, schedule: Q01DX009 (ip), vehicle: saline with Tween-80, higher = larger tumour

## CC(=O)O[C@H]1C(=O)[C@@]2(C)[C@H]([C@H](OC(=O)c3ccccc3)[C@]3(O)C[C@H](OC(=O)[C@H](O)[C@@H](NC(=O)c4ccccc4)c4ccccc4)C(C)=C1C3(C)C)[C@]1(OC(C)=O)CO[C@@H]1C[C@@H]2O
endpoint: mean tumor weight, dose: 10.0 mg/kg/injection, schedule: Q02DX011 (ip), vehicle: Klucel (hydroxypropylcellulose) (HPC), higher = larger tumour
  T/C: 103 % of control
endpoint: mean tumor weight, dose: 20.0 mg/kg/injection, schedule: Q02DX011 (ip), vehicle: Klucel (hydroxypropylcellulose) (HPC), higher = larger tumour
  T/C: 78 % of control
endpoint: mean tumor weight, dose: 40.0 mg/kg/injection, schedule: Q02DX011 (ip), vehicle: Klucel (hydroxypropylcellulose) (HPC), higher = larger tumour
  T/C: 57 % of control
endpoint: median survival time, dose: 1.32 mg/kg/injection, schedule: Q02DX011 (ip), vehicle: Klucel (hydroxypropylcellulose) (HPC), higher = longer survival
  T/C: 108 % of control
endpoint: median survival time, dose: 1.32 mg/kg/injection, schedule: Q02DX011 (ip), vehicle: other, higher = longer survival
  T/C: 115 % of control
endpoint: median survival time, dose: 1.98 mg/kg/injection, schedule: Q02DX011 (ip), vehicle: Klucel (hydroxypropylcellulose) (HPC), higher = longer survival
  T/C: 111 % of control
endpoint: median survival time, dose: 1.98 mg/kg/injection, schedule: Q02DX011 (ip), vehicle: other, higher = longer survival
  T/C: 109 % of control
endpoint: median survival time, dose: 2.5 mg/kg/injection, schedule: Q04DX003 (ip), vehicle: Klucel (hydroxypropylcellulose) (HPC), higher = longer survival
  T/C: 85 % of control
endpoint: median survival time, dose: 2.96 mg/kg/injection, schedule: Q02DX011 (ip), vehicle: Klucel (hydroxypropylcellulose) (HPC), higher = longer survival
  T/C: 103 % of control
endpoint: median survival time, dose: 4.44 mg/kg/injection, schedule: Q02DX011 (ip), vehicle: Klucel (hydroxypropylcellulose) (HPC), higher = longer survival
  T/C: 111 % of control
endpoint: median survival time, dose: 4.44 mg/kg/injection, schedule: Q02DX011 (ip), vehicle: other, higher = longer survival
  T/C: 115 % of control
endpoint: median survival time, dose: 5.0 mg/kg/injection, schedule: Q04DX003 (ip), vehicle: Klucel (hydroxypropylcellulose) (HPC), higher = longer survival
  T/C: 103 % of control
endpoint: median survival time, dose: 6.67 mg/kg/injection, schedule: Q02DX011 (ip), vehicle: Klucel (hydroxypropylcellulose) (HPC), higher = longer survival
  T/C: 119 % of control
endpoint: median survival time, dose: 6.67 mg/kg/injection, schedule: Q02DX011 (ip), vehicle: other, higher = longer survival
  T/C: 112 % of control
endpoint: median survival time, dose: 10.0 mg/kg/injection, schedule: Q02DX011 (ip), vehicle: Klucel (hydroxypropylcellulose) (HPC), higher = longer survival
  T/C: 110 % of control
endpoint: median survival time, dose: 10.0 mg/kg/injection, schedule: Q02DX011 (ip), vehicle: other, higher = longer survival
  T/C: 106 % of control
endpoint: median survival time, dose: 10.0 mg/kg/injection, schedule: Q04DX003 (ip), vehicle: Klucel (hydroxypropylcellulose) (HPC), higher = longer survival
  T/C: 109 % of control
endpoint: median survival time, dose: 15.0 mg/kg/injection, schedule: Q02DX011 (ip), vehicle: Klucel (hydroxypropylcellulose) (HPC), higher = longer survival
  T/C: 91 % of control
endpoint: median survival time, dose: 15.0 mg/kg/injection, schedule: Q02DX011 (ip), vehicle: other, higher = longer survival
  T/C: 107 % of control
endpoint: median survival time, dose: 22.5 mg/kg/injection, schedule: Q02DX011 (ip), vehicle: other, higher = longer survival
  T/C: 108 % of control
endpoint: median tumor weight (est.), dose: 1.32 mg/kg/injection, schedule: Q02DX011 (ip), vehicle: Klucel (hydroxypropylcellulose) (HPC), higher = larger tumour
  T/C: 83 % of control
endpoint: median tumor weight (est.), dose: 1.32 mg/kg/injection, schedule: Q02DX011 (ip), vehicle: other, higher = larger tumour
  T/C: 106 % of control
endpoint: median tumor weight (est.), dose: 1.98 mg/kg/injection, schedule: Q02DX011 (ip), vehicle: Klucel (hydroxypropylcellulose) (HPC), higher = larger tumour
  T/C: 73 % of control
endpoint: median tumor weight (est.), dose: 1.98 mg/kg/injection, schedule: Q02DX011 (ip), vehicle: other, higher = larger tumour
  T/C: 96 % of control
endpoint: median tumor weight (est.), dose: 2.96 mg/kg/injection, schedule: Q02DX011 (ip), vehicle: Klucel (hydroxypropylcellulose) (HPC), higher = larger tumour
  T/C: 87 % of control
endpoint: median tumor weight (est.), dose: 2.96 mg/kg/injection, schedule: Q02DX011 (ip), vehicle: other, higher = larger tumour
  T/C: 87 % of control
endpoint: median tumor weight (est.), dose: 4.44 mg/kg/injection, schedule: Q02DX011 (ip), vehicle: Klucel (hydroxypropylcellulose) (HPC), higher = larger tumour
  T/C: 62 % of control
endpoint: median tumor weight (est.), dose: 4.44 mg/kg/injection, schedule: Q02DX011 (ip), vehicle: other, higher = larger tumour
  T/C: 76 % of control
endpoint: median tumor weight (est.), dose: 6.67 mg/kg/injection, schedule: Q02DX011 (ip), vehicle: Klucel (hydroxypropylcellulose) (HPC), higher = larger tumour
  T/C: 58 % of control
endpoint: median tumor weight (est.), dose: 6.67 mg/kg/injection, schedule: Q02DX011 (ip), vehicle: other, higher = larger tumour
  T/C: 79 % of control
endpoint: median tumor weight (est.), dose: 10.0 mg/kg/injection, schedule: Q02DX011 (ip), vehicle: other, higher = larger tumour
  T/C: 63 % of control
endpoint: median tumor weight (est.), dose: 15.0 mg/kg/injection, schedule: Q02DX011 (ip), vehicle: Klucel (hydroxypropylcellulose) (HPC), higher = larger tumour
  T/C: 73 % of control
endpoint: median tumor weight (est.), dose: 15.0 mg/kg/injection, schedule: Q02DX011 (ip), vehicle: other, higher = larger tumour
  T/C: 59 % of control
endpoint: median tumor weight (est.), dose: 20.0 mg/kg/injection, schedule: Q02DX011 (ip), vehicle: Klucel (hydroxypropylcellulose) (HPC), higher = larger tumour
  T/C: 63 % of control
endpoint: median tumor weight (est.), dose: 22.5 mg/kg/injection, schedule: Q02DX011 (ip), vehicle: other, higher = larger tumour
  T/C: 38 % of control
endpoint: median tumor weight (est.), dose: 40.0 mg/kg/injection, schedule: Q02DX011 (ip), vehicle: Klucel (hydroxypropylcellulose) (HPC), higher = larger tumour
  T/C: 31 % of control

## COc1cc(/C=N/NC(=O)COCC(=O)N/N=C/c2ccc(O)cc2OC)ccc1O
[1]
  T/C: 94 % of control
[2]
  T/C: 86 % of control
[3]
  T/C: 91 % of control
[4]
  T/C: 116 % of control
[5]
  T/C: 122 % of control
[6]
  T/C: 122 % of control

## S=c1nc[nH]c2nc[nH]c12
endpoint: median survival time, dose: 12.5 mg/kg/injection, schedule: Q04DX006 (ip), vehicle: saline with Tween-80, higher = longer survival
  T/C: 99 % of control
endpoint: median survival time, dose: 25.0 mg/kg/injection, schedule: Q04DX006 (ip), vehicle: saline with Tween-80, higher = longer survival
  T/C: 111 % of control
endpoint: median survival time, dose: 50.0 mg/kg/injection, schedule: Q02DX033 (ip), vehicle: saline with Tween-80, higher = longer survival
  T/C: 107 % of control
endpoint: median survival time, dose: 50.0 mg/kg/injection, schedule: Q04DX006 (ip), vehicle: saline with Tween-80, higher = longer survival
  T/C: 105 % of control
endpoint: median survival time, dose: 100.0 mg/kg/injection, schedule: Q04DX006 (ip), vehicle: saline with Tween-80, higher = longer survival
  T/C: 111 % of control

## CCOc1cc(/C=N/NC(=O)N(c2ccccc2)c2ccccc2)ccc1O
[1]
  T/C: 98 % of control
[2]
  T/C: 99 % of control
[3]
  T/C: 92 % of control

## CCC(NN)C(=O)OCc1ccccc1 (stereo not given)
[1]
  T/C: 107 % of control
[2]
  T/C: 104 % of control
[3]
  T/C: 104 % of control
[4]
  T/C: 75 % of control
[5]
  T/C: 103 % of control
[6]
  T/C: 109 % of control

## c1cnc2c(OCCOCCOCCOCCOc3cccc4cccnc34)cccc2c1
[1]
  T/C: 98 % of control
[2]
  T/C: 122 % of control
[3]
  T/C: 121 % of control
[4]
  T/C: 73 % of control
[5]
  T/C: 58 % of control
[6]
  T/C: 49 % of control

## Cn1c2c(c(=O)n(C)c1=O)CS(=O)c1ccccc1N2 (stereo not given)
[1]
  T/C: 103 % of control
[2]
  T/C: 106 % of control
[3]
  T/C: 109 % of control
[4]
  T/C: 65 % of control
[5]
  T/C: 61 % of control
[6]
  T/C: 83 % of control

## CNC(=O)c1ccccc1C1(O)c2ccccc2CCc2ccccc21
[1]
  T/C: 109 % of control
[3]
  T/C: 100 % of control

## O=[N+]([O-])c1ccc(CSc2ncnc3c2ncn3C2OC(COP(=O)(O)O)C(O)C2O)cc1 (stereo not given)
endpoint: median survival time, dose: 64.8 mg/kg/injection, schedule: Q01DX005 (ip), vehicle: saline, higher = longer survival
  T/C: 115 % of control and 118 % of control

## O=C1c2c(O)ccc(O)c2C(=O)c2c(NCCNCCO)ccc(NCCNCCO)c21
endpoint: median tumor weight (est.), dose: 0.25 mg/kg/injection, schedule: Q02DX011 (ip), vehicle: water, higher = larger tumour
  T/C: 97 % of control
endpoint: median tumor weight (est.), dose: 1.0 mg/kg/injection, schedule: Q02DX011 (ip), vehicle: water, higher = larger tumour
  T/C: 31 % of control and 38 % of control
endpoint: median tumor weight (est.), dose: 2.0 mg/kg/injection, schedule: Q02DX011 (ip), vehicle: water, higher = larger tumour
  T/C: 4 % of control

## O=C(O)C1(C(=O)O)CCC1.[NH2-].[NH2-].[Pt+2]
endpoint: median survival time, dose: 6.25 mg/kg/injection, schedule: Q02DX030 (ip), vehicle: water, higher = longer survival
  T/C: 98 % of control
endpoint: median survival time, dose: 17.0 mg/kg/injection, schedule: Q01DX009 (ip), vehicle: other, higher = longer survival
  T/C: 100 % of control
endpoint: median survival time, dose: 25.0 mg/kg/injection, schedule: Q01DX009 (ip), vehicle: other, higher = longer survival
  T/C: 114 % of control
endpoint: median survival time, dose: 25.0 mg/kg/injection, schedule: Q02DX030 (ip), vehicle: water, higher = longer survival
  T/C: 165 % of control
endpoint: median survival time, dose: 25.92 mg/kg/injection, schedule: Q04DX005 (ip), vehicle: water, higher = longer survival
  T/C: 162 % of control
endpoint: median survival time, dose: 38.0 mg/kg/injection, schedule: Q01DX009 (ip), vehicle: other, higher = longer survival
  T/C: 107 % of control
endpoint: median survival time, dose: 43.2 mg/kg/injection, schedule: Q04DX005 (ip), vehicle: water, higher = longer survival
  T/C: 169 % of control
endpoint: median survival time, dose: 50.0 mg/kg/injection, schedule: Q02DX030 (ip), vehicle: water, higher = longer survival
  T/C: 94 % of control
endpoint: median survival time, dose: 72.0 mg/kg/injection, schedule: Q04DX005 (ip), vehicle: water, higher = longer survival
  T/C: 196 % of control
endpoint: median tumor weight (est.), dose: 15.6 mg/kg/injection, schedule: Q04DX005 (ip), vehicle: water, higher = larger tumour
  T/C: 22 % of control
endpoint: median tumor weight (est.), dose: 25.92 mg/kg/injection, schedule: Q04DX005 (ip), vehicle: water, higher = larger tumour
  T/C: 20 % of control

— PubChem BioAssay AID288 (DTP/NCI, 2004)
